Test results taken from ChEMBL document CHEMBL5696442, “Discovery of type II inhibitors of TGFβ-activated kinase 1 (TAK1) and mitogen-activated protein kinase kinase kinase kinase 2 (MAP4K2)” (J Med Chem, 2015).
Calls of active or inactive are those of the source. No cut-off for these calls is given here.

Legend:
[1] = biological target: Epidermal growth factor receptor (Homo sapiens) (UniProt P00533); assay: Inhibition of EGFR ACT labeling site harbouring ITDFGLAKLLGAEEK in human A-375 cells at 5 uM by KiNativ Profiling analysis relative to control; type: cell-based
Chain of Epidermal growth factor receptor (Homo sapiens) (P00533 whole entry): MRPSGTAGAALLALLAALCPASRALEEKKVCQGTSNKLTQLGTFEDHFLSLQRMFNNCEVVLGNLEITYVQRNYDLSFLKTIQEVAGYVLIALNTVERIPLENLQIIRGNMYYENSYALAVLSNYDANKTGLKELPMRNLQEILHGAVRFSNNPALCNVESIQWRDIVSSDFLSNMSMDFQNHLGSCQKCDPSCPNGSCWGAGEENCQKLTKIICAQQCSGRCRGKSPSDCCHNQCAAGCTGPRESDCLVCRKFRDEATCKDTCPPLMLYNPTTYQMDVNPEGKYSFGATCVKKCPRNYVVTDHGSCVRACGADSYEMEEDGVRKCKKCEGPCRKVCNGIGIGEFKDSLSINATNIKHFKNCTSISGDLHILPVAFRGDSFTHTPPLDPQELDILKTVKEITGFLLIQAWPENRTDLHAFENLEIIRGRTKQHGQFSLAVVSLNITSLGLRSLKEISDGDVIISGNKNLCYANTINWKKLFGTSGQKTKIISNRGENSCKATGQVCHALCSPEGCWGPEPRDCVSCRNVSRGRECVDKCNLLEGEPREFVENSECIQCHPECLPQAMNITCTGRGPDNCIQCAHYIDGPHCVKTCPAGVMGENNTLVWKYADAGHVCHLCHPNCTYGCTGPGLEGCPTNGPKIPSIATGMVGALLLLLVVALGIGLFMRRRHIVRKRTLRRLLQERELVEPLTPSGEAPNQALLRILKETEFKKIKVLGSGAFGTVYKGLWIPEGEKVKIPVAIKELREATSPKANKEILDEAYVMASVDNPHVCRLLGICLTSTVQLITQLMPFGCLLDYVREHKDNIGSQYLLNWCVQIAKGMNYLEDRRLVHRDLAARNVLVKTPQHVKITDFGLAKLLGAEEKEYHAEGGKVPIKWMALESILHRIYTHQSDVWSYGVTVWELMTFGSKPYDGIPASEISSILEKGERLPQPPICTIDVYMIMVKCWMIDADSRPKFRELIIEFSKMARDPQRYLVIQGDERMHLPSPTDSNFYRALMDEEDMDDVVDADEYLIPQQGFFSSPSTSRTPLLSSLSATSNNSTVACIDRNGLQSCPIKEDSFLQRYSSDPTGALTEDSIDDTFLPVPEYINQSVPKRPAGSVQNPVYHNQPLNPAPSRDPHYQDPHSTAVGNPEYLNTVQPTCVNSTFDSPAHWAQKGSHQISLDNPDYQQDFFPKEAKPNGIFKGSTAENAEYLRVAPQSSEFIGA

[2] = biological target: T1, Dual specificity mitogen-activated protein kinase kinase 6 (Homo sapiens) (UniProt P52564); assay: Inhibition of MEK6 (unknown origin) at 10 uM by Ambit Kinomescan binding assay
T1 sequence (whole entry): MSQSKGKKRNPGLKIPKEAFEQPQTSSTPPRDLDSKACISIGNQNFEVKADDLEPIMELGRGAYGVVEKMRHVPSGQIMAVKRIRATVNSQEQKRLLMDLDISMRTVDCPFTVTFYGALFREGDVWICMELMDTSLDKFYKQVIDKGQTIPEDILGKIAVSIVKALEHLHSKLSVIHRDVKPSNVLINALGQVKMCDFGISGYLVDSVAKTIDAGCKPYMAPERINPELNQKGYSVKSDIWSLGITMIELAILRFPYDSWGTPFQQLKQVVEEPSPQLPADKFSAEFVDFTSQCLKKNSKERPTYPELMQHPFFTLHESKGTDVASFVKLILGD

[3] = biological target: T2, Mitogen-activated protein kinase kinase kinase kinase 2 (Homo sapiens) (UniProt Q12851); assay: Inhibition of MAP4K2 Lys1 labeling site in human A-375 cells at 5 uM by KiNativ Profiling analysis relative to control; type: cell-based
T2 sequence (whole entry): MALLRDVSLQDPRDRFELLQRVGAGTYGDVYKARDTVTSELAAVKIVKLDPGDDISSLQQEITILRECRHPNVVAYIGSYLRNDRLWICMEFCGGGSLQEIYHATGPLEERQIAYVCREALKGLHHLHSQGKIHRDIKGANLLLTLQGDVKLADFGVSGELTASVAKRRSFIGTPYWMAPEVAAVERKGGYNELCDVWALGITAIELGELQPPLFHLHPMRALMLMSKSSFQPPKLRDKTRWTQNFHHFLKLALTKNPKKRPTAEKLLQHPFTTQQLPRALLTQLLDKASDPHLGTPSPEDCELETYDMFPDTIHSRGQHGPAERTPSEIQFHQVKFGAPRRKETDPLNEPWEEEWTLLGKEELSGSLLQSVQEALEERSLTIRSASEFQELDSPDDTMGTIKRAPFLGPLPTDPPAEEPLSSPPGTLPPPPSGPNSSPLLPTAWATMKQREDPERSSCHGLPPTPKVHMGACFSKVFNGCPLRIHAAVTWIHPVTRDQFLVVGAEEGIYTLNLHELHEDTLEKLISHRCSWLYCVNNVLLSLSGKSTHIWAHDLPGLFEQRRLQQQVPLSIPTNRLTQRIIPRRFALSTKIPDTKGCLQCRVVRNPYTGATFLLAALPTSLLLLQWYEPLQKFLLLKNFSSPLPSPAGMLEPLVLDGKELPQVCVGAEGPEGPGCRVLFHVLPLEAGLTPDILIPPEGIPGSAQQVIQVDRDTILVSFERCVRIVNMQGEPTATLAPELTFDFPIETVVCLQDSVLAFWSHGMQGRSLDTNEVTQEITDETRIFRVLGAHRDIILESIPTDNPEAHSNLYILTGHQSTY

[4] = biological target: Phosphatidylinositol 4-kinase beta (Homo sapiens) (UniProt Q9UBF8); assay: Inhibition of PI4KB ATP labeling site harbouring VPHTQAVVLNSKDKAPYLIYVEVLECENFDTTSVPAR in human A-375 cells at 0.5 uM by KiNativ Profiling analysis relative to control; type: cell-based
Chain of Phosphatidylinositol 4-kinase beta (Homo sapiens) (Q9UBF8 2-816 limits assumed): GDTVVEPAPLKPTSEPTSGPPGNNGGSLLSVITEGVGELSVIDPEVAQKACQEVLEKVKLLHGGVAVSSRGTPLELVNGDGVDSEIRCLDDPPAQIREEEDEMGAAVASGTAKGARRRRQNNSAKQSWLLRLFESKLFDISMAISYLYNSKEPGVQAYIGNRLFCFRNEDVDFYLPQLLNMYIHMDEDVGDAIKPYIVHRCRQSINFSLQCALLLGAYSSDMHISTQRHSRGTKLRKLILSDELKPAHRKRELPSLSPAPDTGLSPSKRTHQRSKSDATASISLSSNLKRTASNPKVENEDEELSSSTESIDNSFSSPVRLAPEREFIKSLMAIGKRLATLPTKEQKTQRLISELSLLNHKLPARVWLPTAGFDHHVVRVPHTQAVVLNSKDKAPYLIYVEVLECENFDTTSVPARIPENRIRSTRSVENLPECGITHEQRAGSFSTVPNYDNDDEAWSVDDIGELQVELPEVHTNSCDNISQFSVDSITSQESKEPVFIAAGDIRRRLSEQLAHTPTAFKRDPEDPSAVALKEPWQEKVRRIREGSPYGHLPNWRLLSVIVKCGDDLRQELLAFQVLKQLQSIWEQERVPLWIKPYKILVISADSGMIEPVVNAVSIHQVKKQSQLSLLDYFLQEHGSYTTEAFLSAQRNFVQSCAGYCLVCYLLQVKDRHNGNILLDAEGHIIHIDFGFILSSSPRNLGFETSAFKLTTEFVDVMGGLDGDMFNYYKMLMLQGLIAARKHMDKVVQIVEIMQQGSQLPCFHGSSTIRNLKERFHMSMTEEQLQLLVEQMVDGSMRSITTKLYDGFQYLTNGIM

[5] = biological target: T3, Eukaryotic elongation factor 2 kinase (Homo sapiens) (UniProt O00418); assay: Inhibition of eEF2K ATP labeling site harbouring YIKYNSNSGFVR in human A-375 cells at 0.5 uM by KiNativ Profiling analysis relative to control; type: cell-based
T3 sequence (whole entry): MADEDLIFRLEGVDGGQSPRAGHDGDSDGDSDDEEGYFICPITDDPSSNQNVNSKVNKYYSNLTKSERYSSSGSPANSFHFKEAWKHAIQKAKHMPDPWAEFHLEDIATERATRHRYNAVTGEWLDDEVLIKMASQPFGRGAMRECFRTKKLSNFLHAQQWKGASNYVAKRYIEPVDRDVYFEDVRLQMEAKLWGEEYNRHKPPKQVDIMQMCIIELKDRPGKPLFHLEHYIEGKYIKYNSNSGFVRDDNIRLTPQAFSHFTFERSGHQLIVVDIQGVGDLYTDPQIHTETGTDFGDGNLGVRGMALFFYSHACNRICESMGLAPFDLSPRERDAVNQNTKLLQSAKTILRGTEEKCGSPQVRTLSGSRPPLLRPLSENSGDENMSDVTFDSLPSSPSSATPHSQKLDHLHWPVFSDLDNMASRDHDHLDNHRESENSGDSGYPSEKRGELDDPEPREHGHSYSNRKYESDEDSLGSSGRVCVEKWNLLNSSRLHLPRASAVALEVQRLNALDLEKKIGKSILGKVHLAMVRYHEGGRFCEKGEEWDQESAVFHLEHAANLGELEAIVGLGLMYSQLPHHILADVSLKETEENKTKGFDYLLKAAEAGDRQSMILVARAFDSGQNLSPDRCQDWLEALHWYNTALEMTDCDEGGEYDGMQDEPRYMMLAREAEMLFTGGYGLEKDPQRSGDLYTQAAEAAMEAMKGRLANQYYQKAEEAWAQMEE

[6] = biological target: Tyrosine-protein kinase JAK2 (Homo sapiens) (UniProt O60674); assay: Inhibition of JAK2 JH1catalytic domain (unknown origin) at 1 uM by Ambit Kinomescan binding assay relative to control
Chain of Tyrosine-protein kinase JAK2 (Homo sapiens) (O60674 whole entry, the tested form may be a part): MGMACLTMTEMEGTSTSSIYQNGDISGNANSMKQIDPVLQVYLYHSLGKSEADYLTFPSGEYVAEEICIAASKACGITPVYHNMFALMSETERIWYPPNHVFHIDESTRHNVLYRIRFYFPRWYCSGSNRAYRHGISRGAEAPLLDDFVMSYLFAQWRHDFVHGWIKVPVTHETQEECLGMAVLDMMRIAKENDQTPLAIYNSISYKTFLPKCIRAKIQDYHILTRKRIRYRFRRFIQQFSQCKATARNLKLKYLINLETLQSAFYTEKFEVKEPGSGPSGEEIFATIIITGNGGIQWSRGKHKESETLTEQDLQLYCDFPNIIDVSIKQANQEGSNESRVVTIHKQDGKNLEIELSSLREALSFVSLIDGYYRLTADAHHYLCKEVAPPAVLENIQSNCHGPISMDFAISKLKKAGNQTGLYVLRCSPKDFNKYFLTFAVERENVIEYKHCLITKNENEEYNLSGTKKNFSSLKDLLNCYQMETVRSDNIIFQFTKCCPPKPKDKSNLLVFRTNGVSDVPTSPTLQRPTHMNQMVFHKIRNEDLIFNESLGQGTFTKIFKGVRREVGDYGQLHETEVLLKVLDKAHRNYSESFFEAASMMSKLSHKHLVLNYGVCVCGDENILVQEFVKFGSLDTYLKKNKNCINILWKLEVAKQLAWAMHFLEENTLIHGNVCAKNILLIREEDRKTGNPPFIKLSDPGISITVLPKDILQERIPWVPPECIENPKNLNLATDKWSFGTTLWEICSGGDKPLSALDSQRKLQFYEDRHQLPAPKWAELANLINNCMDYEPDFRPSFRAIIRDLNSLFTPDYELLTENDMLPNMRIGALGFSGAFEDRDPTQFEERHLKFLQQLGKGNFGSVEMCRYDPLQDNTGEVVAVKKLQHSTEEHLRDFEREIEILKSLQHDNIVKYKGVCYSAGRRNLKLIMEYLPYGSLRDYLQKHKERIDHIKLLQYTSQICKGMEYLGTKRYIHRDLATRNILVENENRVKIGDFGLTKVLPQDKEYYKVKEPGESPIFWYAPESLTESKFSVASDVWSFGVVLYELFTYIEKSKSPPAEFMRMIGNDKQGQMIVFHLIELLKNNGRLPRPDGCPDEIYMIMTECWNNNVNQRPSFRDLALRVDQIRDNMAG

SMILES	inhibition [1]	inhibition [2]	inhibition [3]	inhibition [4]	inhibition [5]	inhibition [6]
CCN1CCN(Cc2ccc(NC(=O)c3ccc(C)c(Oc4ccnc5[nH]ccc45)c3)cc2C(F)(F)F)CC1	5.4%	inactive	> 99.5%			
CCN1CCN(Cc2ccc(NC(=O)c3ccc(C)c(/C=C/c4cnc5[nH]ccc5c4OC)c3)cc2C(F)(F)F)CC1				18.3%	-8.5%	32%
